Laboratory results from US20230192748A1 (DoubleRainbow Biosciences Inc., priority 2020, published 2023).
≈ marks a conversion by molar mass, not a printed value.

How the values were obtained:
[1] = distilled water, 25° C.
Method: (§1) Afterwards, each sample was centrifuged at 12,000×g for 20 min. The supernatant of each sample was then filtered through a 0.45-μm membrane filter and the concentration of the compound in the supernatant, which is defined as the water-soluble component, was measured by its absorbance at 254 nm using HPLC, and its absolute solubility was calculated in reference to the concentration-absorbance standard curve.

[2] = cited from earlier work
[3] = etoposide phosphate plus cisplatin; cited from earlier work
[4] = tested on: etoposide-resistant cell line; conditions: cited from earlier work
[5] = tested on: blood plasma proteins (primarily albumin); conditions: cited from earlier work
[6] = aqueous solutions, 80° C., pH 5; cited from earlier work
physchem = conditions: distilled water, 25 °C, thermodynamic from solid
Method: as §1

[7] = in vivo; cited from earlier work

Question: For `COc1cc(C2c3cc4c(cc3C(OC3OC5COC(C)OC5C(OC5OC(CO)C(O)C(O)C5O)C3O)C3COC(=O)C23)OCO4)cc(OC)c1O` (stereo not drawn), which “water solubility relative to etoposide” value [1] is on record?
Answer: The value was 200 times.

Question: For `COc1cc([C@@H]2c3cc4c(cc3[C@@H](O[C@@H]3O[C@@H]5CO[C@@H](C)O[C@H]5[C@H](O)[C@H]3O)[C@H]3COC(=O)[C@H]23)OCO4)cc(OC)c1OP(=O)(O)O` [Etoposide phosphate], which aqueous solubility [2] is on record?
Answer: Its aqueous solubility is 20000 µg/mL.

Question: What about the “difference in PK/PD parameters or overall response rate versus etoposide plus cisplatin” value [3] of the same compound?
Answer: Its value is “no statistically significant difference”.

Question: For `COc1cc([C@@H]2c3cc4c(cc3[C@@H](O[C@@H]3O[C@@H]5CO[C@@H](C)O[C@H]5[C@H](O)[C@H]3O)[C@H]3COC(=O)[C@H]23)OCO4)cc(OC)c1OC(=O)OCC1COC(C)(C)O1` (stereo partly drawn) [CAP7.1], which “concentrations cytotoxic to an etoposide-resistant cell line” value [4] is on record?
Answer: Its value is “nanomolar concentrations”.

Question: Which results are given for `COc1cc([C@@H]2c3cc4c(cc3[C@@H](O[C@@H]3O[C@@H]5CO[C@@H](C)O[C@H]5[C@H](O)[C@H]3O)[C@H]3COC(=O)[C@H]23)OCO4)cc(OC)c1O` [etoposide, Etoposide]?
Answer: bound to blood plasma proteins [5]: 97%; half life [6]: 0.643 h; solubility in aqueous solutions ([2]; 37° C.): 150 to 170 µg/mL; solubility at 12 h (physchem): 56 µg/mL (≈ 95.1 µM); half-life [7]: 4 to 11 h
